According to US10065990B2, “Cyclic peptide compound, and preparation method, pharmaceutical composition and use thereof” (HANGZHOU GUANYU BIO-MEDICAL CO., LTD, priority 2013, dated 2018):
Where two headings read alike, the source gives them in different places.

Legend:
[1] = target: HDAC1 (Homo sapiens, UniProt Q13547); assay: HDAC biochemical activity measurement (fluorescent substrate deacetylation);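 also: fluorogenic acetyl-lysine substrate (20 µM) deacetylated by HDAC1, then developer releases fluorophore read at 360 nm excitation and 460 nm emission, inhibitor incubated 30 min at 37 °C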
Procedure: The chemical activity of the compound is determined according to the degree of deacetylation inhibition of the HDAC enzyme. This experiment measured the degree of deacetylation related to tumor proliferation and metastasis of HDAC1, HDAC2, HDAC3, HDAC8, HDAC11 five subtypes HDAC enzymes. After the substrate containing an acetylated lysine side chain and HDAC enzyme are labeled with a fluorescent label, the fluorescent substrate is de acetyl. The fluorescent labeled substrate is cleaved by the enzyme, and the fluorescent substance is released, which generates 460 nm emission light under the excitation of 360 nm light.
HDAC substrate was diluted with reaction buffer to 200M (reaction concentration of 20M), the HDAC enzyme was diluted to the appropriate concentration, then added different concentrations of the test compounds and acted at 37° C. 30 minutes, and then added the same volume of 2-times concentration substrate developing solution (developer), incubated at room temperature for 15 minutes.

[2] = tested on: A549 (human lung cancer cells); assay: MTT cancer cell growth inhibition; assay type: cell-based; details: Homo sapiens, A549, 72 h, MTT, 72 hours incubation; read-out: GI50 A54
Method in brief: (§1)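 72 h exposure, final drug 10^−5–10^−10 M, triplicate wells; 1500 cells/well plated the day before; medium DMEM or 1640 + 10% FBS; 37° C./5% CO2. MTT (5 mg/ml stock) 4 h, DMSO solubilisation, A570 → % viability → GI50.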

[3] = tested on: Bel-7402 (human hepatoma cells); assay: MTT cancer cell growth inhibition; assay type: cell-based; details: Homo sapiens, Bel-7402, 72 h, MTT, 72 hours incubation, Bel-7402 cells; read-out: GI50 Bel-7402
Method in brief: as §1

[4] = tested on: DU145 (human prostate cancer cells); assay: MTT cancer cell growth inhibition; assay type: cell-based; details: Homo sapiens, DU-145, 72 h, MTT, 72 hours incubation; read-out: GI50 Du1
Method in brief: as §1

[5] = tested on: HCC827 (human non-small cell lung cancer cells); assay: MTT cancer cell growth inhibition; assay type: cell-based; details: Homo sapiens, HCC827, 72 h, MTT, 72 hours incubation, HCC827 cells; read-out: GI50 HCC827
Method in brief: as §1

[6] = tested on: HT1080 (human fibrosarcoma cells); assay: MTT cancer cell growth inhibition; assay type: cell-based; details: Homo sapiens, HT-1080, 72 h, MTT, 72 hours incubation; read-out: GI50 HT1
Method in brief: as §1

[7] = tested on: Hela (human cervical cancer cells); assay: MTT cancer cell growth inhibition; assay type: cell-based; details: Homo sapiens, HeLa, 72 h, MTT, 72 hours incubation; read-out: GI50 Hela
Method in brief: as §1

[8] = tested on: Huh-7 (human hepatoma cells); assay: MTT cancer cell growth inhibition; assay type: cell-based; details: Homo sapiens, Huh-7, 72 h, MTT, 72 hours incubation, Huh-7 cells; read-out: GI50 Huh-7
Method in brief: as §1

[9] = tested on: K562 (human leukemia cells); assay: MTT cancer cell growth inhibition; assay type: cell-based; details: Homo sapiens, K562, 72 h, MTT, 72 hours incubation, K562 cells; read-out: GI50 K562
Method in brief: as §1

[10] = tested on: KBM-5 (human chronic myelogenous leukemia); assay: MTT cancer cell growth inhibition; assay type: cell-based; details: Homo sapiens, KBM5, 72 h, MTT, 72 hours incubation, KBM-5 cells; read-out: GI50 KBM-5
Method in brief: as §1

[11] = tested on: KBM5-T315I (human chronic myelogenous leukemia); assay: MTT cancer cell growth inhibition; assay type: cell-based; details: Homo sapiens, 72 h, MTT, 72 hours incubation, KBM5-T315I cells; read-out: GI50 KBM5-T315I
Method in brief: as §1

[12] = tested on: MCF-7 (human breast cancer cells); assay: MTT cancer cell growth inhibition; assay type: cell-based; details: Homo sapiens, MCF7, 72 h, 72 hours incubation, read-out: GI50 MCF
Method in brief: as §1

[13] = tested on: MDA-MB-231 (breast cancer cells); assay: MTT cancer cell growth inhibition; assay type: cell-based; details: Homo sapiens, MDA-MB-231, 72 h, read-out: GI50 MDA-MB-231, MTT, 72 hours incubation, MDA-MB-231 cells
Method in brief: as §1

[14] = tested on: MOLT-4 (human acute lymphoblastic leukemia cells); assay: MTT cancer cell growth inhibition; assay type: cell-based; details: Homo sapiens, MOLT-4, 72 h, MTT, 72 hours incubation; read-out: GI50 Mol
Method in brief: as §1

[15] = tested on: N-87 (human gastric cancer cells); assay: MTT cancer cell growth inhibition; assay type: cell-based; details: Homo sapiens, 72 h, MTT, 72 hours incubation, N-87 cells; read-out: GI50 N-87
Method in brief: as §1

[16] = tested on: PANC-1 (Pac-1, human pancreatic cancer cells); assay: MTT cancer cell growth inhibition; assay type: cell-based; details: Homo sapiens, PANC-1, 72 h, MTT, 72 hours incubation; read-out: GI50 PAN
Method in brief: as §1

[17] = tested on: SGC-7901 (human gastric cancer cells); assay: MTT cancer cell growth inhibition; assay type: cell-based; details: Homo sapiens, SGC-7901, 72 h, MTT, 72 hours incubation, SGC-7901 cells; read-out: GI50 SGC-7901
Method in brief: as §1

[18] = tested on: U937 (human leukemia cells); assay: MTT cancer cell growth inhibition; assay type: cell-based; details: Homo sapiens, U-937, 72 h, MTT, 72 hours incubation; read-out: GI50 U93
Method in brief: as §1

[19] = tested on: lncap (prostate cancer cells); assay: MTT cancer cell growth inhibition; assay type: cell-based; details: Homo sapiens, LNCaP, 72 h, MTT, 72 hours incubation; read-out: GI50 lnca
Method in brief: as §1

[20] = target: HDAC3 (Homo sapiens, UniProt O15379); assay: HDAC biochemical activity measurement (fluorescent substrate deacetylation);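 also: fluorogenic acetyl-lysine substrate (20 µM) deacetylated by HDAC3, then developer added for 15 min at room temperature, release of fluorophore read at excitation 360 nm, emission 460 nm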
[21] = target: T1, HDAC11 (Homo sapiens, UniProt Q96DB2); assay: as above;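 also: HDAC11 enzyme acting on an acetyl-lysine fluorogenic substrate, then a developer frees the fluorophore, read at excitation 360 nm and emission 460 nm, IC50 over a compound dilution series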
T1 sequence (Q96DB2 1-347): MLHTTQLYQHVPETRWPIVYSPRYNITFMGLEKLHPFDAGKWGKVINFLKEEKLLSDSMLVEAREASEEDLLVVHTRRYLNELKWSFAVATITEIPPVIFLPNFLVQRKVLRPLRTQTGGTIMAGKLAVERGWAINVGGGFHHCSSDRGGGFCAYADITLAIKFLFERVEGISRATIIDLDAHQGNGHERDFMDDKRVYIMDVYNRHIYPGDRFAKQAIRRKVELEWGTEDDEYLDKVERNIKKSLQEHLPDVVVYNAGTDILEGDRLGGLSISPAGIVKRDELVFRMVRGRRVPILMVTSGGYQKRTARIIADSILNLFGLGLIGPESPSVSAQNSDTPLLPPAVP

[22] = HDAC1, 37° C. 30 minutes, read-out: IC50 HDAC1

Chain of HDAC3 (O15379 whole entry, species assumed): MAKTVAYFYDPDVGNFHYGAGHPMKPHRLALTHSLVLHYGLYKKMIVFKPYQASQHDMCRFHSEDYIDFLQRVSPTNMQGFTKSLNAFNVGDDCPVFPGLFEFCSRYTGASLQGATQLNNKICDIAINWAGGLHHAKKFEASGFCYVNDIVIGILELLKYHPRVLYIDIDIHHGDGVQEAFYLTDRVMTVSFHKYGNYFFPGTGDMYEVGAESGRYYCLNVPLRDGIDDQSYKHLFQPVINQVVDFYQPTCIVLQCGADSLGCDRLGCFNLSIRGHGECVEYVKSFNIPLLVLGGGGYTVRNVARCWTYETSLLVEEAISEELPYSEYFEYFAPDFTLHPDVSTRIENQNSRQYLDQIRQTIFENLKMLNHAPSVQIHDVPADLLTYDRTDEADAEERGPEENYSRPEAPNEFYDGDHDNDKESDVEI
Chain of HDAC3 (Q9Y618 395-489 partner limits assumed, species assumed): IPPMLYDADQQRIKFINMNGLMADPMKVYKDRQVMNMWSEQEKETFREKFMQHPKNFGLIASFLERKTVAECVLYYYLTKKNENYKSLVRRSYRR
Chain of HDAC1 (Q13547 whole entry, species assumed): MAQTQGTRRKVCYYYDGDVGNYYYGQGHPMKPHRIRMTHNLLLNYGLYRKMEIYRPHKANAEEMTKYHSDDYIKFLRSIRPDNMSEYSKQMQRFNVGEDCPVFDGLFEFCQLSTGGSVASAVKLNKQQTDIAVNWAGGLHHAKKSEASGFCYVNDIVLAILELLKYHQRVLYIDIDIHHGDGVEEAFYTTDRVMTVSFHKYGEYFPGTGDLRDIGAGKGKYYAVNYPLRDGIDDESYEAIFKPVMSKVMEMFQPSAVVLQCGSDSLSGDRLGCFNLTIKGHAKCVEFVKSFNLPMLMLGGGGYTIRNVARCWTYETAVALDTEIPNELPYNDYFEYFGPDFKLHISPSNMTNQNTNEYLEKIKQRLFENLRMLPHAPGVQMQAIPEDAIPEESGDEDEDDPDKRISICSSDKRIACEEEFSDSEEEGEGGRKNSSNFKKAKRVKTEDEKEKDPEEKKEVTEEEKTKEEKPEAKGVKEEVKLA

Compound	IC50 [1, 22] [nM]	GI50 [2] [nM]	GI50 [3] [nM]	GI50 [4] [nM]	GI50 [5] [nM]	GI50 [6] [nM]	GI50 [7] [nM]	GI50 [8] [nM]	GI50 [9] [nM]	GI50 [10] [nM]	GI50 [11] [nM]	GI50 [12] [nM]	GI50 [13] [nM]	GI50 [14] [nM]	GI50 [15] [nM]	GI50 [16] [nM]	GI50 [17] [nM]	GI50 [18] [nM]	GI50 [19] [nM]	IC50 [20] [nM]	further results
C/C=C1\NC(=O)c2ccc(F)c(n2)CNC(=O)C[C@@H](/C=C/CCSC(C)=O)OC(=O)[C@H](CCCCNC(=O)OCC2c3ccccc3-c3ccccc32)NC1=O [Example 77]	94	600	83	40	83	80	50	25	42	52	37	30	25	20	52	80	601	30	20	26	IC50 [21]: 88 nM
C/C=C1\NC(=O)c2cc(F)cc(n2)CNC(=O)C[C@@H](/C=C/CCSC(C)=O)OC(=O)[C@H](Cc2cccc3ccccc23)NC1=O [Example 79]	57	50	91	20	91	90	70	31	27	76	28	20	31	30	22	90	51	60	30	27	IC50 [21]: 93 nM
C=C1NC(=O)c2nc(ccc2F)CNC(=O)C[C@@H](/C=C/CCSC(C)=O)OC(=O)[C@H](C(C)C)NC1=O [Compound 84]	42	40	73	30	73	70	50	28	35	51	26	20	28	20	19	70	43	50	20	–	IC50 ([1]; Table 3, column C, read-out: IC50 HDAC1, C (six-membered ring with substituents)): 42 nM; IC50 ([20]; read-out: IC50 HDAC3, HDAC3, 37° C. 30 minutes): 29 nM; IC50 ([21]; read-out: IC50 HDAC11, HDAC11, 37° C. 30 minutes): 91 nM
